The source of these data is patent US20230357292A1, “MULTI-COORDINATE GOLD-PHOSPHINE COMPOUNDS AND METHOD OF USE” (University of Kentucky Research Foundation, priority 2020, published 2023).

The structures appear in SMILES notation. “Also recorded” adds a separate entry of the source. Like-named read-outs stand apart in the source and are kept apart here.

Series [1] deals with MDA-MB-231 cells. The following applies: 1 μM for 15 h, FACS. The procedure: MDA-MB-231 cells were seeded at a density of 5×10^5 cells/well in a 6-well clear bottom plate with a final media volume of 2 mL. The cells were allowed to adhere overnight at 37° C. A stock of AuPhos-89 was prepared fresh in DMSO/DMEM (% v/v=20:80) and added to the desired well at a concentration of 1 μM with a final volume of 2.5 mL and incubated for 15 h at 37° C. A stock of H2O2 was prepared in PBS and the cells treated at a final concentration of 2 mM for 3 hours and used as positive control. When ready for analysis, medium was removed and the wells washed with 5 mL of PBS. The cells were trypsinized (1 mL), 5 mL of DMEM were added to each well, and total volume collected and centrifuged to pellet the cells. The cells were resuspended in 2 mL of fresh media, counted, and reconstituted to a concentration of 1×10^5 cells/mL. The cells were centrifuged again, and the pellet suspended in 500 μL of Annexin binding buffer. To each sample was added 5 μl of Annexin V-FITC and 5 μl PI and incubated in the dark at room temperature for 5 minutes. The samples were then subjected to FACS analysis.

The subject of a further series is MDA-MB-231 (breast). Briefly: Cell viability, crystal violet assay, MDA-MB-231. The format is cell-based, human. An excerpt:
The plates were washed with water and dried again.

The conditions of series [2]: 37° C. As for the experimental part:
To determine the stability of gold compounds under physiological conditions in the presence of biological nucleophiles, UV absorbance measurements were conducted over a 24 h time period. Briefly, AuPhos was dissolved in media from a DMSO stock. To this solution was added 10 mM L-glutathione.
To study the stability of the gold(III) compounds in solution, the UV-vis profile of the representative compounds was evaluated in biologically relevant media at physiological temperature of 37° C. Given the common limitation of gold compounds to promiscuously bind thiol containing biomolecules, the interaction of gold(III) complex AuPhos89 was investigated with physiologically relevant concentration of L-glutathione (10 mM) in Dubelcco modified essential medium (DMEM).

For series [3] the following is noted: 10 mM in DMSO-d6, 24 h. As for the experimental part:
Stock solutions comprised of a 1 mL, 20 mM solution of AuPhos-89 in DMSO-d6. The solution of L-GSH (20 mM) was sonicated for 5 minutes to dissolve the reagent in DMSO-d6. 1 mL of each solution were mixed in a 1:1 ratio to produce a final concentration of 10 mM in DMSO-d6. The solution was then analyzed by 1H NMR spectroscopy. The solution was further analyzed at different time intervals, t=1 h, 6 h, 12 h, and 24 h.

Series [4] concerns MDA-MB-231 cells. Kind of series: Western blotting of apoptotic markers and AMPK. To be noted: 1 μM, indicated times. A general note: A western blot detects proteins with antibodies after separation by electrophoresis.
Procedure: Furthermore, to determine if AuPhos-89 induces apoptosis through the caspase-mediated apoptotic pathway, western blotting was performed to assess the induction of caspases and cleaved PARP (FIG. 7C). […] Global changes in proteins were investigated using quantitative proteomics after 12 h of exposing MDA-MB-231 cells to AuPhos-89 at 1 μM. In this tandem mass tag (TMT)-based quantification, protein was extracted from cryo-preserved cell pellets and following tryptic digestion, TMT-labeling was performed. After fractionation, tandem LC-MS/MS was conducted and database search against HUMAN protein database was carried out. Proteins of relative quantification were divided into two categories. A quantitative ratio over 1.5 was considered upregulation while a quantitative ratio less than 1/1.5 was considered as downregulation.
The subject of series [5] is isolated mitochondria from the liver of C57BL/6J mice. The following applies: 1 μM, in the presence of oligomycin; dose-dependent up to about 10 μM. The procedure: (§1) Analysis. The initial step of Seahorse XF96 analysis included optimization of the cell density. In this stage, isolated mitochondria (30 μg) or MDA-MB-231 cells were seeded at a range of densities from 2000 cells/well to 100,000 cells/well, followed by optimization of the FCCP injection concentration used (0.6 μM of 1.2 μM). […] All Seahorse XF96 experiments with MDA-MB-231 were performed under these conditions. The cells were seeded the night prior to the experiment with a final volume of 100 μL and incubated overnight at 37° C. AuPhos-89 was prepared as a stock in DMSO/DMEM (% v/v=20:80) and diluted to a working concentration of 100 μM with Seahorse XF96 assay buffer and then subsequently serial diluted by 10× to achieve multiple concentrations. The assay was performed using a pneumatic injection method of AuPhos-89, with the final injection concentrations of 0.01, 0.1, 1, and 10 μM. This was followed by injection of oligomycin (1.5 μM), FCCP (0.6 μM) and rotenone/antimycin A (0.5 μM).

The test system of series [6] is MDA-MB-231 cells. The following applies: live MDA-MB-231 cells, mito-stress test. As for the experimental part: as §1
The conditions of series [7]: equimolar glutathione, aqueous solution, 24 h.
Procedure: All spectra were recorded using an Agilent Technologies 1100 series HPLC instrument and an Agilent Phase Eclipse Plus C18 column (4.6 mm×100 mm; 3.5 μm particle size). AuPhos-89 and glutathione were prepared as 1 mM stock in DMSO and water, respectively. Equimolar amounts were mixed and the solutions were measured at 0, 1, 3, and 24 h by HPLC. The parameters used in the HPLC were as follows: flow rate, 1 mL/min; λ=280 nm; eluent A=H2O with 0.1% TFA; Eluent B═CH3CN with 0.05% HCOOH; Solvent gradient: 0 min (100:0 H2O:CH3CN), 10 min (0:100 H2O:CH3CN), 15 min (100:0 H2O:CH3CN).
Series [8] concerns MDA-MB-231 cells. The following applies: 1 μM; 24 h, 48 h, 72 h.
Procedure: MDA-MB-231 cells were seeded at a density of 5×10^5 cells/well in a 6-well clear bottom plate with a final media volume of 2 mL and allowed to adhere overnight 37° C. […] After the desired treatment period, the medium was removed and added to a 15 mL Falcon tube. The wells were washed with 5 mL of PBS and added to the Falcon tube. The cells were trypsinized (1 mL) and added 5 mL of fresh DMEM. All media were combined, and the tube centrifuged at 2000 rpm for 5 minutes to collect the pellet. The medium was decanted, and the pellet suspended in 1 mL of PBS, which was then transferred to a 1 mL Eppendorf tube, centrifuged at 2000 rpm for 5 minutes and suspended in 70% EtOH/PBS solution. These solutions were stored at 4° C. until ready for analysis. […] The cells were washed twice with PBS (1 mL) and suspended in a 50 μL of RNase solution (100 μg/mL) and 200 μL of a 50 μg/mL PI solution. The solutions were then filtered through a 5 mL polystyrene round-bottom tube fit with a cell-strainer cap. The samples were then analyzed with FACS.
Series [9] has as its system 4T1 tumor. Kind of series: In vivo comparative experiment of AuPhos-89 and cisplatin, 4T1, IP. The arrangement: species or system BALB/c mice. As for the experimental part:
Mice were implanted with 2,000,000 4T1 cells subcutaneously on their flanks. […] The control group was injected with a PBS solution containing 1.5% DMSO and 12% Kolliphor. Injection and tumor-size/body-weight measurement was performed three days a week.
Mice organs (heart, lung, liver, kidney, spleen, and tumor) were fixed in freshly prepared paraformaldehyde (4% in PBS), the fixation time was 24 hours. And those processed for paraffin sectioning. The organs sections of 5 μm were stained with H&E staining and used for histological examination of the organs and tumor. A total of 5 sections per tissues (spanning the full depth of the organ) were examined and photographed using a Nikon Eclipse 55i microscope. […]

The test system of series [10] is 4T1 tumor.
Procedure: Female, 5 week-old BALB/c mice were purchased from Charles River Laboratories (Wilmington, MA). All mice were quarantined for 1 week prior to use and kept in micro-isolator cages (four mice per cage) in a temperature- and humidity-controlled environment as per the Division of Laboratory Animal Research (DLAR) of University of Kentucky. All mice were maintained in a pathogen-free environment under the care of DLAR of University of Kentucky. The study was performed in compliance with the NIH guidelines (NIH Publication No. 85-23 Rev. 1985) for the care and use of laboratory animals and all experimental procedures were monitored and approved by the Institutional Animal Care and Use Committee (IACUC) of University of Kentucky (USA).
The control group was injected with a PBS solution containing 1% DMSO and 1% Kolliphor.
A separate group of mice was administered equal volumes of vehicle control at the same time points and via the analogous route.
In series [11] the test system is 4T1 cells engineered to express RFP. To be noted: 10 mg kg−1 day−1, six treatments, thrice a week, compared with controls. An excerpt:
Murine TNBC 4T1 cells engineered to express RFP were also subcutaneously injected into flanks of immunocompromised mice in the presence of Matrigel.

The conditions of series [12]: 10 mg kg−1 IV, 1 h and 24 h; heart, lung, liver, spleen, kidney, tumor.
Procedure: With four mice inoculated with 4T1 (1,000,000 cells), after 20 days, AuPhos-89 was inserted into mice by IV administration (0.1 mL, 10 mg/kg). Each tissue was obtained by sacrificing the mice (n=2) 1 and 24 hours later. […] The solution turned yellow and diluted as needed to measure the gold content using a Graphite Furnace Atomic Absorption Spectrometer. Before measuring all samples, the standard solution curves were measured.
After respective time points of 1 h and 24 h, mice were euthanized. Organs including heart, lung, liver, spleen, kidney, and tumor were excised and the gold concentration was analyzed by GF-AAS.

One may read the IC50 as the concentration that gives 50% inhibition. Read a high IC50 as weaker potency in that assay.

Consider `[Cl-].[Cl][Au-]1([c]2ccccc2-c2ccccn2)[P+](c2ccccc2)(c2ccccc2)c2ccccc2[P+]1(c1ccccc1)c1ccccc1` [AuPhos-89, (2-phenylpyridine)[1,2-Bis(diphenylphosphino)benzene]gold(III) Dichloride], for which, in the series with MDA-MB-231 cells [1], the “population of cells in early to late apoptosis” value is about 40%. Also, the IC50 in the series with MDA-MB-231 (breast) (MDA-MB-231 (breast), 4,000 cells/well, treated 72 h, mean ± SD (n = 3)) is 450 ± 140 nM; with MDA-MB-231 (breast) (cell line not stated at the place (structure-activity relationship studies)) it was 220 nM. In series [2] (10 mM L-glutathione in media (DMEM), 24 h), the “stability, UV-vis absorption with L-glutathione” value is listed as “no alteration to the absorption band”. Besides, in series [2] (RPMI-1640, 24 h), the “stability, UV-vis absorption in RPMI-1640” value is “no changes to the absorption spectra”. For the same molecule, the “stability with L-GSH, proton resonances” value in series [3] is “minimally altered”. Moreover, the “induction of caspases, cleaved PARP and AMPK” value with MDA-MB-231 cells [4] is “activate cleaved caspases, PARP and the cellular energy regulator, AMPK”. In addition, in series [5], the “mitochondrial oxygen consumption rate (OCR)” value is “increased oxygen consumption”. In addition, the ATP production entry with MDA-MB-231 cells [6] is listed as “diminished ATP production”. The proton leak entry in the series on MDA-MB-231 cells [6] is “acutely induced proton leak”. Besides, the “stability with L-GSH, HPLC chromatogram” value in series [7] was “little change”. Besides, the cell cycle distribution result with MDA-MB-231 cells [8] is “no significant changes to the cell cycle”. Moreover, the “liver metastasis (H&E sections)” value in the series with 4T1 tumor [9] (4T1 tumor-bearing mice, treated versus control) is “can inhibit liver metastasis; also recorded: not visible; also recorded: no palpable metastatic lesions”. Besides, the “tumor inhibition compared with the control group” value in the series with 4T1 tumor [9] (AuPhos-89 10 mg kg−1 IP, cisplatin 3 mg kg−1 IP) is given as “significant tumor inhibition”. Moreover, the values for the body weight entry in the series on 4T1 tumor [9] (intraperitoneal administration) and in the series with 4T1 tumor [10] (end of the observation period) were “kept constant” and “did not exhibit significant change”, respectively. For the same molecule, the survival result in the series with 4T1 tumor [9] (mouse, in vivo, ip) is given as “increased rates of survival”. Also, the tumor volume entry in the series on 4T1 tumor [9] (six treatments, thrice a week, IP, AuPhos-89 10 mg kg−1, cisplatin 3 mg/kg, versus vehicle control) was “reduced tumor volume”. Further, the tumor growth rate result with 4T1 tumor [10] (10 mg kg−1 IV, 3 weekly injections, n=5, versus vehicle control) is reported as “decreased significantly”. Besides, in series [11], the tumor growth result is on record as “significant attenuation of growth”. Also, the “tissue biodistribution, Au levels in organs” value in [12] is given as “confirmed the uptake”.
